Values quoted from earlier work, collected in US11712576B2, “Method and apparatus for cancer treatment” (Minnesota Medical Physics LLC, priority 2018, dated 2023).

Legend:
[1] = system: melanoma, colon, prostate carcinoma, lymphoma, pancreatic and hepatocellular carcinomas
lung cancer cells Lu-65 = details: highest concentrations in mM range (0.01-10 mM tested), 48 hours
[2] = system: human glioblastoma U87MG cancer cells; details: agonist 100 nM combined with EFS (Helmholtz coils)
tumor = details: concentration of 100 μM
[3] = oral doses of 4 mg twice a day over a week period
adenosine receptor A2aAR = adenosine receptor A2aAR (Homo sapiens, UniProt P29274)
Chain of adenosine receptor A2aAR (P29274 whole entry): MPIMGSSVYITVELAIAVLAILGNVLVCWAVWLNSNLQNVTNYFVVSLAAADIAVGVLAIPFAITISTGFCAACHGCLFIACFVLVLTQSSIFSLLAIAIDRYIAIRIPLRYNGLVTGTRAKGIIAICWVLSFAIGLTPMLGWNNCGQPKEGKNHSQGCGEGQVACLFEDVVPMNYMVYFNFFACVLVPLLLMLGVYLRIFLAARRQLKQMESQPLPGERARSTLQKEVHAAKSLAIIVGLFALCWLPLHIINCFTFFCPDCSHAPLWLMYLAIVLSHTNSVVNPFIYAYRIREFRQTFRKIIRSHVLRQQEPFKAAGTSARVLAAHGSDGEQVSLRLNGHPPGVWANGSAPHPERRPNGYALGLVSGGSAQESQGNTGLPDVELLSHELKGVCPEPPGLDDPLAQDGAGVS

## CNC(=O)[C@H]1O[C@@H](n2cnc3c(NCc4cccc(I)c4)ncnc32)[C@H](O)[C@@H]1O [IB-MECA]
[1]
  effect on metastases, migrating mobility and proliferation of cancer cells: reduction of metastases, migrating mobility of cancer cells and inhibition of proliferation

## Nc1ncnc2c1ncn2[C@@H]1O[C@H](CO)[C@@H](O)[C@H]1O [adenosine]
Lung cancer cells Lu-65
  cancer cells destroyed: 100%

## CNC(=O)c1cnn(-c2nc(N)c3ncn([C@@H]4O[C@H](CO)[C@@H](O)[C@H]4O)c3n2)c1 [Lexiscan]
BBB; doses used for cardiac perfusion
  side effects: strong, sometimes life-threatening side effects
BBB; in vivo
  permeation of the BBB: substantial permeation of the BBB

## CNC(=O)[C@H]1O[C@@H](n2cnc3c(NCc4cccc(I)c4)nc(Cl)nc32)[C@H](O)[C@@H]1O [CI-IB-MECA]
[2]
  increase in apoptosis attributed to EFS over agonist alone: 25-30%
tumor
  effect on tumor growth: only a slowdown of tumor growth
[1]
  effect on metastases, migrating mobility and proliferation of cancer cells: reduction of metastases, migrating mobility of cancer cells and inhibition of proliferation
Cancer cells
  apoptosis of cancer cells (normal cells refractory): induce apoptosis of cancer cells

## CNC(=O)[C@H]1O[C@@H](n2cnc3c(NCc4cccc(I)c4)ncnc32)[C@H](O)[C@@H]1O [CF101]
[3]
  tolerability: well tolerated
Cancer cells
  apoptosis of cancer cells (normal cells refractory): induce apoptosis of cancer cells

## Nc1nc2c(cnn2CCc2ccccc2)c2nc(-c3ccco3)nn12 [SCH-58261]
Adenosine receptor A2aAR
  selectivity for A2aAR over the other adenosine receptors: more than 50 fold
